From ChEMBL document CHEMBL1148695, “Synthesis and biological activity of nociceptin/orphanin FQ analogues substituted in position 7 or 11 with Calpha,alpha-dialkylated amino acids” (Bioorg Med Chem, 2007)
Calls of active or inactive are those of the source. The calls are words filed in the database; no cut-off is given here. *1 amine or outer side, *2 acyl side, *3 side chain or, on linkers, in order; H or OH if unused. Where a SMILES comes first, the peptide text is derived from it. [ ]: non-standard residue; d: D form. X1 = N[C@@H](Cc1ccccc1)CN(CC(=O)[*:2])[*:1]; Phe(4-F) = N[C@@H](Cc1ccc(F)cc1)C(=O)O; Aib = CC(C)(N)C(=O)O

Legend:
Nociceptin receptor [1] = molecular target: T1, Nociceptin receptor (Mus musculus, UniProt P35377); assay: Antagonist activity at NOP receptor in Swiss mouse vas deferens by [35S]GTP-gamma-S binding assay; assay type: functional, tissue-based; details: read-out: pA2 (converted)
T1 sequence (P35377 whole entry): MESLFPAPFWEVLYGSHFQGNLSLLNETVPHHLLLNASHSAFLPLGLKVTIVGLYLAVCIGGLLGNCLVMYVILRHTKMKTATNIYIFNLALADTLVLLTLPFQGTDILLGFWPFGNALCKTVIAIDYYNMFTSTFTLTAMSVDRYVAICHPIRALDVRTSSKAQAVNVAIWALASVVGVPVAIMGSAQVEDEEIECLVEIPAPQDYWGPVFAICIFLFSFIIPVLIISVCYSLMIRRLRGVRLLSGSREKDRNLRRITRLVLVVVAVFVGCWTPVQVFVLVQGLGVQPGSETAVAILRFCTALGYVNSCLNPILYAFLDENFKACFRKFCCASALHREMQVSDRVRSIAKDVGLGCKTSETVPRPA

Nociceptin receptor [2] = molecular target: T2, Nociceptin receptor (Cavia porcellus, UniProt P47748); assay: Antagonist activity at NOP receptor in Albino guinea pig ileum assessed as effect on electrically stimulated contractions; assay type: functional, tissue-based; details: read-out: pA2 (converted)
T2 sequence (P47748 whole entry): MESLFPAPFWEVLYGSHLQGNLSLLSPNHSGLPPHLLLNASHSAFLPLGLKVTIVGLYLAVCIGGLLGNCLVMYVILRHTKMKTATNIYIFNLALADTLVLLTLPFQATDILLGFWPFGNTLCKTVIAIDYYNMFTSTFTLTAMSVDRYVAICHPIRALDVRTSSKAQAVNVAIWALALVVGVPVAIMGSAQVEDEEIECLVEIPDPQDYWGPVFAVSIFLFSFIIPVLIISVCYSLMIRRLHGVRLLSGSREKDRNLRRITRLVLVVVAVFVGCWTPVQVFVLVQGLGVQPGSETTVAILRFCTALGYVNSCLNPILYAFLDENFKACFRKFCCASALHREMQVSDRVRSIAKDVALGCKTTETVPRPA

Nociceptin receptor [3] = molecular target: T3, Nociceptin receptor (Rattus norvegicus, UniProt P35370); assay: Antagonist activity at NOP receptor in Sprague-Dawley rat vas deferens assessed as effect on electrically stimulated contractions; assay type: functional, tissue-based; details: read-out: pA2 (converted)
T3 sequence (P35370 whole entry): as the sequence (P35377 whole entry) above, with F9Y, A335S counted along it

Nociceptin receptor [4] = molecular target: T1, Nociceptin receptor; assay: (§1) Agonist activity at NOP receptor in Swiss mouse vas deferens by [35S]GTP-gamma-S binding assay; assay type: functional, tissue-based
Nociceptin receptor [5] = molecular target: T2, Nociceptin receptor; assay: (§2) Agonist activity at NOP receptor in Albino guinea pig ileum assessed as effect on electrically stimulated contractions; assay type: functional, tissue-based
[6] = molecular target: Nociceptin receptor (Mus musculus) (UniProt P35377); assay: as §1; assay type: functional, tissue-based
Nociceptin receptor (Mus musculus), sequence (P35377 whole entry): as the sequence (P35377 whole entry) above

[7] = molecular target: Nociceptin receptor (Cavia porcellus) (UniProt P47748); assay: as §2; assay type: functional, tissue-based
Nociceptin receptor (Cavia porcellus), sequence (P47748 whole entry): as the sequence (P47748 whole entry) above

Nociceptin receptor [8] = molecular target: T3, Nociceptin receptor; assay: Agonist activity at NOP receptor in Sprague-Dawley rat vas deferens assessed as effect on electrically stimulated contractions; assay type: functional, tissue-based
[9] = molecular target: Nociceptin receptor (Mus musculus) (UniProt P35377); assay: (§3) Agonist activity at NOP receptor in Swiss mouse vas deferens assessed as effect on electrically stimulated contractions; assay type: functional, tissue-based
Nociceptin receptor [10] = molecular target: T1, Nociceptin receptor; assay: as §3; assay type: functional, tissue-based
Mu-type opioid receptor = Mu-type opioid receptor (Homo sapiens, UniProt P35372); assay: Displacement of [3H]diprenorphine from human recombinant mu opioid receptor expressed in CHO cells; assay type: cell-based
Mu-type opioid receptor, sequence (P35372 whole entry): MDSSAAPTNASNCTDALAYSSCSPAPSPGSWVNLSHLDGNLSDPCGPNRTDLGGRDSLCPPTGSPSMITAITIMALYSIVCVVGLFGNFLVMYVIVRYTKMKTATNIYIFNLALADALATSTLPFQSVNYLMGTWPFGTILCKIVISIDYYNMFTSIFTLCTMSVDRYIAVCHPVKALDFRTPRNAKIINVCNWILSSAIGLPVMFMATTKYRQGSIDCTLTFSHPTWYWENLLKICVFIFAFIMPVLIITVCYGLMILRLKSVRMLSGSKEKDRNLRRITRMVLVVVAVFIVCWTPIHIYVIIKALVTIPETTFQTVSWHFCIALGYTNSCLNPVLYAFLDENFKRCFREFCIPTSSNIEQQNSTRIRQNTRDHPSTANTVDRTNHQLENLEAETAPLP

[11] = molecular target: Delta-type opioid receptor (Homo sapiens, UniProt P41143); assay: Displacement of [3H]diprenorphine from human recombinant delta opioid receptor expressed in CHO cells; assay type: cell-based
Delta-type opioid receptor, sequence (P41143 whole entry): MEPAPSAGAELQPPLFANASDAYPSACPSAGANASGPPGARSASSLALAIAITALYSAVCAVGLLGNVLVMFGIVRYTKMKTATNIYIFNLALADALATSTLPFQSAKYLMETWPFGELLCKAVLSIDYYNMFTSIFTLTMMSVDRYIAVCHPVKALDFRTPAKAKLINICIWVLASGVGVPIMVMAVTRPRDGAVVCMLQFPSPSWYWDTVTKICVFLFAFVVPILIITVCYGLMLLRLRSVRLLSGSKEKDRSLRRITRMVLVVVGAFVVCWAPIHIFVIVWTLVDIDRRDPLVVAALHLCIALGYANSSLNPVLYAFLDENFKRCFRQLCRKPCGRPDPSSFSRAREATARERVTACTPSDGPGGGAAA

Compound: C[C@H](NC(=O)[C@H](CO)NC(=O)[C@H](CCCCN)NC(=O)[C@H](CCCNC(=N)N)NC(=O)C(C)(C)NC(=O)CNC(=O)[C@@H](NC(=O)[C@H](Cc1ccc(F)cc1)NC(=O)CNC(=O)CNC[C@@H](N)Cc1ccccc1)[C@@H](C)O)C(=O)N[C@@H](CCCNC(=N)N)C(=O)N[C@@H](CCCCN)C(=O)N[C@@H](CCCNC(=N)N)C(=O)N[C@@H](CCCCN)C(=O)N[C@@H](CC(N)=O)C(=O)N[C@@H](CCC(N)=O)C(N)=O (H-[X1]G[Phe(4-F)]TG[Aib]RKSARKRKNQ-NH2)
- Kb (Nociceptin receptor [1]): 0.000794 µM
- Kb (Nociceptin receptor [2]): 0.000316 µM
- Kb (Nociceptin receptor [3]): 0.000603 µM

Compound: CC(C)C[C@H](NC(=O)[C@H](CCCCN)NC(=O)[C@H](CCCN=C(N)N)NC(=O)[C@H](C)NC(=O)[C@H](CO)NC(=O)[C@H](CCCCN)NC(=O)[C@H](CCCN=C(N)N)NC(=O)[C@H](C)NC(=O)CNC(=O)[C@@H](NC(=O)[C@H](Cc1ccccc1)NC(=O)CNC(=O)CNC(=O)[C@@H](N)Cc1ccccc1)[C@@H](C)O)C(=O)N[C@@H](C)C(=O)N[C@@H](CC(N)=O)C(=O)N[C@@H](CCC(N)=O)C(=O)O [NOCICEPTIN]
- EC50 (Nociceptin receptor [4]): 0.0355 µM
- EC50 (Nociceptin receptor [5]): 0.00891 µM

Compound: C[C@H](NC(=O)[C@H](CO)NC(=O)[C@H](CCCCN)NC(=O)[C@H](CCCNC(=N)N)NC(=O)C(C)(C)NC(=O)CNC(=O)[C@@H](NC(=O)[C@H](Cc1ccc(F)cc1)NC(=O)CNC(=O)CNC(=O)[C@@H](N)Cc1ccccc1)[C@@H](C)O)C(=O)N[C@@H](CCCNC(=N)N)C(=O)N[C@@H](CCCCN)C(=O)N[C@@H](CCCNC(=N)N)C(=O)N[C@@H](CCCCN)C(=O)N[C@@H](CC(N)=O)C(=O)N[C@@H](CCC(N)=O)C(N)=O
- Emax [6]: 84%
- EC50 (Nociceptin receptor [4]): 0.000575 µM
- Emax [7]: 32%
- EC50 (Nociceptin receptor [5]): 0.000676 µM
- EC50 (Nociceptin receptor [8]): 0.00457 µM

Compound: C[C@H](NC(=O)[C@H](CO)NC(=O)[C@H](CCCCN)NC(=O)[C@H](CCCNC(=N)N)NC(=O)C(C)(C)NC(=O)CNC(=O)[C@@H](NC(=O)[C@H](Cc1ccccc1)NC(=O)CNC(=O)CNC(=O)[C@@H](N)Cc1ccccc1)[C@@H](C)O)C(=O)N[C@@H](CCCNC(=N)N)C(=O)N[C@@H](CCCCN)C(=O)N[C@@H](CCCNC(=N)N)C(=O)N[C@@H](CCCCN)C(=O)N[C@@H](CC(N)=O)C(=O)N[C@@H](CCC(N)=O)C(N)=O
- Activity [6]: inactive
- Activity [7]: inactive

Compound: CC(C)C[C@H](NC(=O)[C@H](CCCCN)NC(=O)[C@H](CCCNC(=N)N)NC(=O)C1(NC(=O)[C@H](CO)NC(=O)[C@H](CCCCN)NC(=O)[C@H](CCCNC(=N)N)NC(=O)[C@H](C)NC(=O)CNC(=O)[C@@H](NC(=O)[C@H](Cc2ccccc2)NC(=O)CNC(=O)CNC(=O)[C@@H](N)Cc2ccccc2)[C@@H](C)O)CCCCC1)C(=O)N[C@@H](C)C(=O)N[C@@H](CC(N)=O)C(=O)N[C@@H](CCC(N)=O)C(N)=O
- Emax [9]: 89%
- EC50 (Nociceptin receptor [10]): 0.0162 µM

Compound: CC(C)C[C@H](NC(=O)[C@H](CCCCN)NC(=O)[C@H](CCCNC(=N)N)NC(=O)[C@H](C)NC(=O)[C@H](CO)NC(=O)[C@H](CCCCN)NC(=O)[C@H](CCCNC(=N)N)NC(=O)C1(NC(=O)CNC(=O)[C@@H](NC(=O)[C@H](Cc2ccccc2)NC(=O)CNC(=O)CNC(=O)[C@@H](N)Cc2ccccc2)[C@@H](C)O)CCCC1)C(=O)N[C@@H](C)C(=O)N[C@@H](CC(N)=O)C(=O)N[C@@H](CCC(N)=O)C(N)=O
- Emax [9]: 98%
- EC50 (Nociceptin receptor [10]): 0.0251 µM

Compound: CC(C)C[C@H](NC(=O)[C@H](CCCCN)NC(=O)[C@H](CCCNC(=N)N)NC(=O)[C@H](C)NC(=O)[C@H](CO)NC(=O)[C@H](CCCCN)NC(=O)[C@H](CCCNC(=N)N)NC(=O)[C@H](C)NC(=O)CNC(=O)[C@@H](NC(=O)[C@H](Cc1ccccc1)NC(=O)CNC(=O)CNC(=O)[C@@H](N)Cc1ccccc1)[C@@H](C)O)C(=O)N[C@@H](C)C(=O)N[C@@H](CC(N)=O)C(=O)N[C@@H](CCC(N)=O)C(=O)O
- Emax [6]: 87%
- Emax [7]: 45%

Compound: CCCC(CCC)(NC(=O)[C@H](CO)NC(=O)[C@H](CCCCN)NC(=O)[C@H](CCCNC(=N)N)NC(=O)[C@H](C)NC(=O)CNC(=O)[C@@H](NC(=O)[C@H](Cc1ccccc1)NC(=O)CNC(=O)CNC(=O)[C@@H](N)Cc1ccccc1)[C@@H](C)O)C(=O)N[C@@H](CCCNC(=N)N)C(=O)N[C@@H](CCCCN)C(=O)N[C@@H](CC(C)C)C(=O)N[C@@H](C)C(=O)N[C@@H](CC(N)=O)C(=O)N[C@@H](CCC(N)=O)C(N)=O
- Emax [9]: 86%
- EC50 (Nociceptin receptor [10]): 0.0295 µM

Compound: CC(C)C[C@H](NC(=O)[C@H](CCCCN)NC(=O)[C@H](CCCNC(=N)N)NC(=O)C(C)(CC(C)C)NC(=O)[C@H](CO)NC(=O)[C@H](CCCCN)NC(=O)[C@H](CCCNC(=N)N)NC(=O)[C@H](C)NC(=O)CNC(=O)[C@@H](NC(=O)[C@H](Cc1ccccc1)NC(=O)CNC(=O)CNC(=O)[C@@H](N)Cc1ccccc1)[C@@H](C)O)C(=O)N[C@@H](C)C(=O)N[C@@H](CC(N)=O)C(=O)N[C@@H](CCC(N)=O)C(N)=O (stereo partly specified)
- Emax [9]: 91%
- EC50 (Nociceptin receptor [10]): 0.0135 µM

Compound: CCC(CC)(NC(=O)[C@H](CO)NC(=O)[C@H](CCCCN)NC(=O)[C@H](CCCNC(=N)N)NC(=O)[C@H](C)NC(=O)CNC(=O)[C@@H](NC(=O)[C@H](Cc1ccccc1)NC(=O)CNC(=O)CNC(=O)[C@@H](N)Cc1ccccc1)[C@@H](C)O)C(=O)N[C@@H](CCCNC(=N)N)C(=O)N[C@@H](CCCCN)C(=O)N[C@@H](CC(C)C)C(=O)N[C@@H](C)C(=O)N[C@@H](CC(N)=O)C(=O)N[C@@H](CCC(N)=O)C(N)=O
- Emax [9]: 87%
- EC50 (Nociceptin receptor [10]): 0.0178 µM

Compound: CCC(CC)(NC(=O)CNC(=O)[C@@H](NC(=O)[C@H](Cc1ccccc1)NC(=O)CNC(=O)CNC(=O)[C@@H](N)Cc1ccccc1)[C@@H](C)O)C(=O)N[C@@H](CCCNC(=N)N)C(=O)N[C@@H](CCCCN)C(=O)N[C@@H](CO)C(=O)N[C@@H](C)C(=O)N[C@@H](CCCNC(=N)N)C(=O)N[C@@H](CCCCN)C(=O)N[C@@H](CC(C)C)C(=O)N[C@@H](C)C(=O)N[C@@H](CC(N)=O)C(=O)N[C@@H](CCC(N)=O)C(N)=O
- Emax [9]: 89%
- EC50 (Nociceptin receptor [10]): 0.0123 µM

Compound: C[C@H](NC(=O)[C@H](CO)NC(=O)[C@H](CCCCN)NC(=O)[C@H](CCCNC(=N)N)NC(=O)C(C)(C)NC(=O)CNC(=O)[C@@H](NC(=O)[C@H](Cc1ccccc1)NC(=O)CNC(=O)CNC(=O)CNCc1ccccc1)[C@@H](C)O)C(=O)N[C@@H](CCCNC(=N)N)C(=O)N[C@@H](CCCCN)C(=O)N[C@@H](CCCNC(=N)N)C(=O)N[C@@H](CCCCN)C(=O)N[C@@H](CC(N)=O)C(=O)N[C@@H](CCC(N)=O)C(N)=O
- Ki (Mu-type opioid receptor): > 10 µM
- Ki [11]: > 10 µM
- Kb (Nociceptin receptor [1]): 0.0347 µM
- Kb (Nociceptin receptor [2]): 0.0468 µM
- Kb (Nociceptin receptor [3]): 0.0871 µM

Compound: CC(C)C[C@H](NC(=O)[C@H](CCCCN)NC(=O)[C@H](CCCNC(=N)N)NC(=O)[C@H](C)NC(=O)[C@H](CO)NC(=O)[C@H](CCCCN)NC(=O)[C@H](CCCNC(=N)N)NC(=O)C(C)(C)NC(=O)CNC(=O)[C@@H](NC(=O)[C@H](Cc1ccccc1)NC(=O)CNC(=O)CNC(=O)[C@@H](N)Cc1ccccc1)[C@@H](C)O)C(=O)N[C@@H](C)C(=O)N[C@@H](CC(N)=O)C(=O)N[C@@H](CCC(N)=O)C(N)=O
- Emax [9]: 96%
- EC50 (Nociceptin receptor [10]): 0.00447 µM

Compound: CC(C)C[C@H](NC(=O)[C@H](CCCCN)NC(=O)[C@H](CCCNC(=N)N)NC(=O)[C@H](C)NC(=O)[C@H](CO)NC(=O)[C@H](CCCCN)NC(=O)[C@H](CCCNC(=N)N)NC(=O)C1(NC(=O)CNC(=O)[C@@H](NC(=O)[C@H](Cc2ccccc2)NC(=O)CNC(=O)CNC(=O)[C@@H](N)Cc2ccccc2)[C@@H](C)O)CC1)C(=O)N[C@@H](C)C(=O)N[C@@H](CC(N)=O)C(=O)N[C@@H](CCC(N)=O)C(N)=O
- Emax [9]: 7.08%
- EC50 (Nociceptin receptor [10]): 0.0832 µM

Compound: CC(C)C[C@H](NC(=O)[C@H](CCCCN)NC(=O)[C@H](CCCNC(=N)N)NC(=O)C1(NC(=O)[C@H](CO)NC(=O)[C@H](CCCCN)NC(=O)[C@H](CCCNC(=N)N)NC(=O)[C@H](C)NC(=O)CNC(=O)[C@@H](NC(=O)[C@H](Cc2ccccc2)NC(=O)CNC(=O)CNC(=O)[C@@H](N)Cc2ccccc2)[C@@H](C)O)CC1)C(=O)N[C@@H](C)C(=O)N[C@@H](CC(N)=O)C(=O)N[C@@H](CCC(N)=O)C(N)=O
- Emax [9]: 91%
- EC50 (Nociceptin receptor [10]): 0.0166 µM

Compound: CC(C)C[C@H](NC(=O)[C@H](CCCCN)NC(=O)[C@H](CCCNC(=N)N)NC(=O)C1(NC(=O)[C@H](CO)NC(=O)[C@H](CCCCN)NC(=O)[C@H](CCCNC(=N)N)NC(=O)[C@H](C)NC(=O)CNC(=O)[C@@H](NC(=O)[C@H](Cc2ccccc2)NC(=O)CNC(=O)CNC(=O)[C@@H](N)Cc2ccccc2)[C@@H](C)O)CCCC1)C(=O)N[C@@H](C)C(=O)N[C@@H](CC(N)=O)C(=O)N[C@@H](CCC(N)=O)C(N)=O
- Emax [9]: 89%
- EC50 (Nociceptin receptor [10]): 0.00832 µM

Compound: CC(C)C[C@H](NC(=O)[C@H](CCCCN)NC(=O)[C@H](CCCNC(=N)N)NC(=O)[C@H](C)NC(=O)[C@H](CO)NC(=O)[C@H](CCCCN)NC(=O)[C@H](CCCNC(=N)N)NC(=O)C1(NC(=O)CNC(=O)[C@@H](NC(=O)[C@H](Cc2ccccc2)NC(=O)CNC(=O)CNC(=O)[C@@H](N)Cc2ccccc2)[C@@H](C)O)CCCCC1)C(=O)N[C@@H](C)C(=O)N[C@@H](CC(N)=O)C(=O)N[C@@H](CCC(N)=O)C(N)=O
- Emax [9]: 87%
- EC50 (Nociceptin receptor [10]): 0.0631 µM
